Measured values taken from PubChem BioAssay (NCI).
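48-hour exposure; five concentrations; linearly interpolated endpoints. GI50: concentration for 50% inhibition of growth. At the TGI there is no net growth.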

Legend:
Assay in all cases: NCI anticancer screen, dose series, 48 h
EKVX NSCLC = test system: EKVX NSCLC
SK-MEL-2 melanoma = test system: SK-MEL-2 melanoma
OVCAR-5 ovarian = test system: OVCAR-5 ovarian
BT-549 breast = test system: BT-549 breast
HT29 colon = test system: HT29 colon
OVCAR-8 ovarian = test system: OVCAR-8 ovarian
UO-31 renal = test system: UO-31 renal
786-0 renal = test system: 786-0 renal
SF-295 CNS = test system: SF-295 CNS
LOX IMVI melanoma = test system: LOX IMVI melanoma
PC-3 prostate = test system: PC-3 prostate
SNB-75 CNS = test system: SNB-75 CNS
U251 CNS = test system: U251 CNS
HCT-116 colon = test system: HCT-116 colon
RXF 393 renal = test system: RXF 393 renal
MDA-MB-231 breast = test system: MDA-MB-231 breast
MDA-MB-435 = test system: MDA-MB-435
HOP-62 NSCLC = test system: HOP-62 NSCLC
NCI-H460 lung = test system: NCI-H460 lung
COLO 205 colon = test system: COLO 205 colon
HS 578T breast = test system: HS 578T breast
IGROV1 ovarian = test system: IGROV1 ovarian
NCI-H522 lung = test system: NCI-H522 lung
M14 melanoma = test system: M14 melanoma
SNB-19 CNS = test system: SNB-19 CNS
TK-10 renal = test system: TK-10 renal
SF-268 CNS = test system: SF-268 CNS

Structure (SMILES): CS(=O)(=O)c1nccc(-c2c(-c3cccc(OCc4ccc(Cl)c(C(F)(F)F)c4)c3)nc3sccn23)n1
- GI50 (EKVX NSCLC): 6.92 µM
- TGI (EKVX NSCLC): 14.4 µM
- GI50 (SK-MEL-2 melanoma): 3.31 µM
- TGI (SK-MEL-2 melanoma): 9.61 µM
- GI50 (OVCAR-5 ovarian): 8.78 µM
- TGI (OVCAR-5 ovarian): 18.8 µM
- GI50 (BT-549 breast): 1.52 µM
- TGI (BT-549 breast): 5.51 µM
- GI50 (HT29 colon): 7.99 µM
- TGI (HT29 colon): 16.3 µM
- GI50 (OVCAR-8 ovarian): 7.09 µM
- TGI (OVCAR-8 ovarian): 13.8 µM
- GI50 (UO-31 renal): 7.16 µM
- TGI (UO-31 renal): 13.7 µM
- GI50 (786-0 renal): 8.45 µM
- TGI (786-0 renal): 15.3 µM
- GI50 (SF-295 CNS): 7.15 µM
- TGI (SF-295 CNS): 15.2 µM
- GI50 (LOX IMVI melanoma): 0.809 µM
- TGI (LOX IMVI melanoma): 1.63 µM
- GI50 (PC-3 prostate): 1.8 µM
- TGI (PC-3 prostate): 6.61 µM
- GI50 (SNB-75 CNS): 6.74 µM
- TGI (SNB-75 CNS): 17.9 µM
- GI50 (U251 CNS): 7.53 µM
- TGI (U251 CNS): 14.4 µM
- GI50 (HCT-116 colon): 6.53 µM
- TGI (HCT-116 colon): 12.9 µM
- GI50 (RXF 393 renal): 4.31 µM
- TGI (RXF 393 renal): 10.9 µM
- GI50 (MDA-MB-231 breast): 1.07 µM
- TGI (MDA-MB-231 breast): 2.38 µM
- GI50 (MDA-MB-435): 9.02 µM
- TGI (MDA-MB-435): 17.9 µM
- GI50 (HOP-62 NSCLC): 7.26 µM
- TGI (HOP-62 NSCLC): 14.1 µM
- GI50 (NCI-H460 lung): 2 µM
- TGI (NCI-H460 lung): 7.28 µM
- GI50 (COLO 205 colon): 7.02 µM
- TGI (COLO 205 colon): 13.9 µM
- GI50 (HS 578T breast): 1.69 µM
- TGI (HS 578T breast): 8.73 µM
- GI50 (IGROV1 ovarian): 1.64 µM
- TGI (IGROV1 ovarian): 5.95 µM
- GI50 (NCI-H522 lung): 1.65 µM
- TGI (NCI-H522 lung): 8.06 µM
- GI50 (M14 melanoma): 6.93 µM
- TGI (M14 melanoma): 14.1 µM
- GI50 (SNB-19 CNS): 6.53 µM
- TGI (SNB-19 CNS): 13 µM
- GI50 (TK-10 renal): 7.99 µM
- TGI (TK-10 renal): 14.9 µM
- GI50 (SF-268 CNS): 8.49 µM
- TGI (SF-268 CNS): 17.6 µM
